From US12377069B2, “Compounds, compositions, methods of using, and methods for preparing compounds” (UNIVERSITY OF LOUISVILLE RESEARCH FOUNDATION, INC., priority 2018, dated 2025)

Legend:
[1] = tested on: mouse bone marrow derived macrophages (BMDMs); assay: LPS-induced IL-6 and TNF-α in BMDM; type: cell-based; details: for LPS-induced IL-6 production in AhR^−/− macrophages: AhR^−/− BMDM, up to 30 NM; for LPS induced IL-6 and TNF-α: 0.1-50 μM; for IL-6 in Nrf2^−/− (fold reduction; TNBS model and LPS-induced BMDM): Nrf2^−/− vs WT
Method: Measurements of IL-6 and TNF-α in BMDM: BMDM were plated in 96 (10,000 cells/well) and 12 wells (0.1×10^6 cells/well) plate for ELISA and RNA isolation. To evaluate the anti-inflammatory properties, BMDMs were stimulated with E. coli-derived lipopolysaccharides (LPS; 055:B5; Sigma) at 50 ng/mL concentration for six hours alone or in combination with UroA or UAS03 at indicated concentrations (0.01, 0.1, 1, 10, 25, 50 μM) in quadruplicates. For cytokine production via ELISA, the supernatant was collected and centrifuged at 10,000×g for 10 min at 4° C. to pellet down any cell and cytokines were quantified using IL-6 and TNF-α specific ELISA kit (Biolegend) following manufacturer's instruction.
Screening for anti-inflammatory activities: Mouse bone marrow derived macrophages (BMDM) were plated in 96 wells plate for ELISA. To evaluate the anti-inflammatory properties, BMDMs were stimulated with E. coli-derived lipopolysaccharides (LPS; 055:B5; Sigma) at 50 ng/mL concentration for six hours alone or in combination with compounds at indicated concentrations in quadruplicates. For cytokine production via ELISA, the supernatant was collected and centrifuged at 12,000 rpm for 10 min at 4° C. to pellet down any cell and cytokines were quantified using IL-6 and TNF-α specific ELISA kit (Biolegend) following manufacturer's instruction. LPS induced IL-6 or TNF-α considered as 100%.

MRP2 = MRP2 expression in 5FU-R colon cancer cells; type: cell-based; details: SW-5FUR colon cancer cell lines
Method: FIG. 43: UroA/UAS03 down regulate drug transporters. (A) Expression of MRP2 is measured by real time PCR upon treating with indicated doses of UroA or UAS03 in SW-5FUR colon cancer cell lines. (B) MRP2 activity is measured using CDCFDA (diacetate ester of 5(6)-carboxy-2′,7′-dichlorofluorescein) transporter assay in SW-FUR colon cancer cell lines upon treating with UroA/USA03.
This could result in increase in intracellular drug concentration leading to increase in cell death/decreased proliferation of drug resistant cancer cells upon treatment with 5FU and UroA/UAS03.

C57BL/6 mice [2] = assay: TNBS-induced colitis; type: in vivo, mouse; details: for colitis phenotype, therapeutic regimen: 20 mg/kg from 24 h post-TNBS; for TNBS-induced colon shortening and colonic inflammation, pre-treatment / barrier function, pre-treatment: oral 20 mg/kg daily one week before TNBS, none after
C57BL/6 mice [3] = assay: 28-day repeated dose toxicity study; details: oral 20 or 40 mg/kg daily, 28 days
Method: 28-day repeated dose toxicity study: To evaluate toxicity of UroA and UAS03, we performed 28-days repeated dose toxicity study. Mice were fed (oral gavage) with UroA (20 and 40 mg/kg/day) and UAS03 (20 and 40 mg/kg/day) daily for 28 days. Body weight, food and water intake were assessed weekly. After 28 days, mice were sacrificed and gross examination of all major organs were performed. Blood was collected to obtain serum. Serum alanine aminotransferase (ALT) and asparate aminotransferase (AST) were analyzed using ALT/AST kit (BioVision) as per instructional manual.

HT29 cells = assay: AhR/Cyp1A1 siRNA knockdown and Cyp1A1 CRISPR/Cas9 deletion; type: cell-based, human; details: 24 h; for Cldn4 or NQO1 in Cyp1A1 deleted cells: CRISPR/Cas9, 50 μM; for Cldn4 induction in AhR or Cyp1A1 knockdown cells: siRNA, 50 μM
Method: Small interfering RNA (siRNA) mediated knockdown experiment: The AhR siRNA (SR300136) and Cyp1A1 siRNA (SR301093) was purchased from Origene. For knockdown experiments, HT29 cells (0.5×10^6 cells/well) were plated in 6 well plate and grown for 24 hr. The AhR, Cyp1A1 and control-siRNA was transfected into HT29 cells using Lipofectamine® RNAiMAX reagent (ThermoFisher Scientific) as per instruction given. After 24 hr of transfections, cell were induced with vehicle (0.01% DMSO), UroA (50 μM) and UAS03 (50 μM) for 24 hr. After treatment with inducers, cells were lysed using RIPA buffer and total protein was used to analyse the expression of AhR, Cyp1A1 and cldn4 by western blot.
Cyp1A1 deletion by CRISPR/Cas9 method: HT29 cells (1.5×10^5) were plated in 6-well in antibiotic free standard growth medium 24 h prior to transfection. At 60% confluency cells, cell were co-transfected with 2 μg each of CRISPR/Cas9 KO Plasmid (sc-400511-KO-2; Santa cruz) and HDR Plasmid (sc-400511-HDR-2; Santa cruz) using UltraCruz® Transfection Reagent (sc-395739; Santa Cruz). Medium was replaced with selective medium (containing 4 μg/mL puromycin) 96 hr post transfection. Transfection was confirmed with fluorescence microscopy and western blot (CYP1A1). The double positive cells for GFP and RFP were sorted using MoFlo XDP sorting instrument (Beckman Coulter). The deletion of Cyp1A1 in these sorted was confirmed by Western blots. These cells were then plated in 6-well plate for in standard medium for evaluating the effect of UroA/UAS03 on Cldn4 expression. After 24 hr of UroA/UAS03 treatment cells were harvested for protein and Cldn4 expression was investigated along with normal HT29 cells.

AhR = AhR nuclear translocation; type: cell-based, human; details: HT29, 50 μM
Method: Confocal Imaging: HT29 or CaCo2 or BMDM cells (50,000 cells/well) were plated on to 8-well chambered slides (154534PK; ThermoFisher Scientific) allowed them to grow overnight. The cells were induced with vehicle (0.01% DMSO) or UroA (50 μM) or UAS03 (50 μM) for desired time points and fixed with cold methonol. The AhR or Nrf2 or Cldn4 stained with respective antibodies (1:200 dilution) followed by fluorecently labelled (Alexa flour 594 for AhR and Alexa flour 488 for Nrf2 and Cldn4) secondary ab (1:500 dilution; ThermoFisher Scientific). The nucleus was stained with DAPI (Sigma Aldrich). The confocal images were captured using Nikon AIR confocal microscope using 60× magnification lense with appropriate laser channels.

SMILES | LPS-induced IL-6 production in AhR^−/− macrophages [1] | anti-inflammatory activities (LPS-induced IL-6 and TNF-α), analogue screening ([1]; LPS 50 ng/mL, six hours, compared UroA) | concentrations showing anti-inflammatory activities ([1]; LPS 50 ng/ml, 6 h) | LPS induced IL-6 and TNF-α ([1]; LPS 50 ng/ml, 6 h) | IL-6 in Nrf2^−/− (fold reduction; TNBS model and LPS-induced BMDM) [1] | expression of drug transporters (MRP2) (MRP2) | colitis phenotype, therapeutic regimen (C57BL/6 mice [2]) | TNBS-induced colon shortening and colonic inflammation, pre-treatment (C57BL/6 mice [2]) | barrier function, pre-treatment (C57BL/6 mice [2]) | serum AST and ALT levels at day 28 (C57BL/6 mice [3]) | signs of toxicity (body weights, CBC counts, serum ALT and AST) (C57BL/6 mice [3]) | Cldn4 or NQO1 in Cyp1A1 deleted cells (HT29 cells) | Cldn4 induction in AhR or Cyp1A1 knockdown cells (HT29 cells) | nuclear translocation of AhR (AhR)
Oc1ccc2c(c1)COc1cc(O)ccc1-2 [UAS03, 6H-benzo[c]chromene-3,8-diol] | did not block | effective anti-inflammatory compounds | nano molar concentrations | decreased | reduced IL-6 in Nrf2^−/− similar to WT | reduce the expression | reversed the colitis phenotype | protected | enhanced barrier function | no significant differences | did not exhibit any signs of toxicity | did not appear to upregulate | does not appear to induce Cldn4 | induced the nuclear translocation
O=c1oc2cc(O)ccc2c2ccc(O)cc12 [UroA, 3,8-dihydroxy-6H-dibenzo[b,d]pyran-6-one] | did not block |  |  | decreased | reduced IL-6 in Nrf2^−/− similar to WT | reduce the expression | reversed the colitis phenotype | protected | enhanced barrier function | no significant differences |  | did not appear to upregulate | does not appear to induce Cldn4 | induced the nuclear translocation
